Test results reported in article PMC4581228, “Membrane Affinity of Platensimycin and Its Dialkylamine Analogs” (International Journal of Molecular Sciences, 2015).

Assays:
[1] = test system: Bacillus subtilis; assay: Minimal inhibitory concentration with cultures of Bacillus subtilis; format: cell-based; conditions: in experiments; organism not given
Source text: Principally, the efficacy of a drug depends on permeability (first selection), the degree of inhibition of the biological target, rates of drug efflux, drug breakdown, off target binding, and sequestration. In the case of platensimycin, the biological target is FabF. […] Details of docked conformations are presented in the Supplementary Figure S2A,B. Platensimycin and QD-11 show the same estimated binding affinity to FabF (C163Q) (PDB ID: 2GFX) and both are potent antibiotics. […] More specifically, platensimycin and myrtemycin were active against Gram-positive bacteria (S. aureus, MRSA; E. faecium, VRE and B. subtilis) and also Gram-negative bacteria, E. coli (but only when co-adminsitered with Phe-Arg-β-naphthylamide dihydrochloride, PAβND, which is a bacterial efflux pump inhibitor) as described in [18]. For the purpose of comparison with the computational docking predictions, here we present data for B. subtilis.
The bottom row in Table 1 presents minimal inhibitory concentrations (MIC) for all of the substances assayed with gram-positive and gram-negative bacteria. […] Despite the fact that the heterocyclic G271 partitioned into the membrane very well, and can be docked well into FabF, it had virtually no antimicrobial activity.

[2] = Tensiometry at the air-water interface (Wilhelmy method); format: physicochemical; conditions: for log KAW (tens.): air-water partitioning coefficient, tensiometry, buffer pH 7.4; for Concentration at which changes of surface tension were detected: detected only at this concentration
Experimental: Surface tensions of subphase solutions with varying concentrations of platensimycin analogs were quantified using the Wilhelmy method with a piece of filter paper (Whatman, No. 1, 10.5 mm wide and 0.25 mm thick) used as a probe. The subphase buffer consisted of 200 mM KCl, 10 mM MgCl2, 5 mM CaCl2, 5 mM HEPES (Sigma-Aldrich, St. Louis, MO, USA) titrated to a pH of 7.4 with KOH. The pressure sensor (model 601, NIMA, Coventry, UK) was calibrated using a 100 mg weight. Water surface tension was measured to be […], after calibration. […] The surface activity and values for molecular area at the surface of the air-water interface (As), the partition coefficient at the air-water interface of the surface active molecule (KAW), and the membrane partitioning coefficient (Kmem), were determined as described previously.
The analysis of interfacial adsorption data was performed in the general framework of the Gibbs equation (1) dπ=∑Γidμi where dπ represents a small change in surface pressure, Γi is surface excess of component i and dμi is the small change of chemical potential of that component in the aqueous phase. For one adsorbing component, in an ideal case the Gibbs isotherm takes the form (2) dπ=RTΓd ln C where surface excess is defined as the surface density of molecules Γ = 1/(NAaS), NA is Avogadro’s number and aS is the area requirement for the molecule at the surface. The adsorbing substance gradually saturates the surface; the process that can be approximated by a Langmuir isotherm: (3) Γ=Γ∞lnKAW⋅C/1+KAW⋅C
Thus, beyond a certain bulk concentration, Γ approaches a constant value of Γ∞ and in that range of concentrations a linear relationship holds: (4) Γ∞=(1/RT)dπ/d ln C
To evaluate the partition coefficient for an air-water interface (KAW) and monolayers (Klip), the integral form of this equation attributed to Szyszkowski and previously applied to monolayers by Seelig and coworkers was used: (5) π=RTΓ∞ln(KAWC+1)
As was shown in Suomolainen 2004 [5], the x-intercept of the fitting line of experimental π-lnC curve would approximate the inverse partitioning coefficient 1/KAW, measured at the air-water interface.

[3] = Langmuir monolayer pressure-area isotherms; format: physicochemical, E. coli; conditions: for log Klip @ 20 mN/m, Measured: E. coli polar lipid monolayer, pH 7.4, ~20 °C; for Effective Molec. Area (ad): area taken by the drug in the monolayer, from slopes of log(ΔArea) vs. surface pressure; for log Klip @ 35 mN/m, Corrected: corrected to the monolayer-bilayer equivalence pressure 35 mN/m (Equation 6)
Experimental: All Langmuir monolayer experiments were done with a two-barrier rectangular 22 cm × 6 cm trough (MicroTrough XS, Kibron Inc., Helsinki, Finland) placed in an Airclean hood. A Dyneprobe metal alloy needle was used as the Wilhelmy plate. Lipids used were E. coli total polar lipid extract from Avanti Polar Lipids (Alabaster, AL, USA) dissolved in chloroform or hexane to a final concentration of 0.2 mg/mL. Distribution of lipids onto the subphase was accomplished using a gastight 50 µL Hamilton® syringe (Hamilton, Reno, NV, USA). The subphase buffer was identical to the tensiometry buffer. Pressure—Area isotherms (monolayers) were performed at room temperature (~20 °C) from 114 to 18 cm^2 at a barrier rate of 20 mm/min. For each analog, isotherms were measured at least four times at every concentration.
In Langmuir experiments, the value of the bulk-monolayer (Klip) partitioning coefficient was determined in a similar way, using the deviations of surface pressure of monolayers measured at constant area. […] However, at this compression, strongly intercalating substances produced pressure shifts beyond the collapse pressure of 45–47 mN/m, which forced us to score Δπ from surface pressure of 20 mN/m achieved at ~80 Å^2/molecule. Klip1 obtained in this expanded state was than corrected for the lateral pressure increase from π1 = 20 to π2 = 35 mN/m, which has the same form as Equation (7) in [5]: (6) ln(Klip2)=ln(Klip1)−(π2−π1)adNA/RT
Here ad is the area taken by the drug in the plane of the monolayer.
To estimate ad we assumed equilibrium between the drug in the subphase and in the monolayer and equated its chemical potentials in the two phases: (7) μ0+RTln(χd)=μ0σ+RTln(χdσ)+π⋅adNA
The right part with indexes σ represents the surface parameters of standard chemical potential µ0σ and drug mole fraction χdσ , whereas the left part represents the bulk parameters. Defining lnKlip = µ0σ −µ0 one can rearrange this equation as (8) lnKlip−lnχdσ−lnχd=π⋅adNA/RT
Differentiating with respect to π gives (9) −RTd(lnχdσ)/NAdπ=ad
Thus the molecular area of the drug defines the slope of χdσ , with which the drug re-partitions back to the subphase as surface pressure π increases. We further assume that at a given surface pressure, insertion of nd drug molecules into the film comprised of nL lipid molecules with initial area A0, should dilate the film by ΔA. (10) nd/nL=ΔA/A0⋅aL/ad
The parameter aL, the area per lipid at that particular pressure, is taken from the control pressure-area isotherm with no drug. The mole fraction of the drug in the monolayer χdσ = nd/(nd + nL) is related to the extent of monolayer dilation ΔA (11) ΔA=ad⋅nd=adnL⋅χdσ/1−χdσ
On the assumption that χdσ is small, ΔA is proportional to the mole fraction of the drug. In Equation (4) we substitute and obtain (12) −kTd(lnΔA)/dπ=ad
Thus, the molecular area of the drug can be determined from the logarithmic slope of ΔA on surface pressure. Once we know ad, we can introduce a correction to Klip due to lateral pressure change ([…]). In addition, we can estimate the molar ratio of drug-to-lipid, the mole fraction χdσ and the partitioning constant. From the extent of monolayer dilation at a constant surface pressure (chosen to be 20 mN/m), the apparent bulk-monolayer partitioning coefficient Klip could be independently estimated as Klip=χdσ/χd , where […] = Cd/55 represents the drug mole fraction in the subphase.

[4] = test system: A98S MscS in the cytoplasmic membrane of E. coli; assay: Patch-clamp of A98S MscS in excised spheroplast patches (activation midpoint shift); conditions: for Redistribution / return of activation midpoint: within the observation time, Supplementary Figure S4; for log Kmem (patch-clamp): x-intercept of midpoint shift (∆p0.5) vs. concentration, native E. coli membrane, cytoplasmic side
Experimental: A pB10b vector was used to house and express the mscS gene in the triple-knockout E. coli strain MJF465 (mscS^−, mscL^−, mscK^−). The A98S MscS mutant, generated and partially characterized previously, was chosen for its higher sensitivity to inner leaflet drug partitioning.
Spheroplasts were generated as described previously. The experimental bath solution contained 400 mM sucrose, 200 mM KCl, 50 mM MgCl2, 5 mM CaCl2, and 5 mM HEPES and was titrated to pH 7.4 with KOH. Membrane patches were obtained on borosilicate glass pipettes and recorded at 30 mV pipette voltage set by a microelectrode amplifier. The midpoint of activation for channels in each patch was determined at two-minute intervals for the duration of the experiment via a 1 s ramp of saturating pressure. Analogs of platensimycin were pre-diluted in either ethanol or bath solution and perfused into the bath to achieve the desired concentration; control injections of equivalent volumes of ethanol had no effect on the midpoint of activation. Negative pressure (suction) was applied with the HSPC-1 high speed pressure clamp apparatus from ALA Scientific. Programming of the pressure protocols and data analysis was performed with the PClamp10 suite (Axon Instr., Foster City, CA, USA). The principle of lateral pressure measurements using two experimental systems, lipid monolayers and patch-clamp, is illustrated in Figure 1.
Similarly, the bulk-membrane partitioning coefficient (Kmem) was estimated from the values of relative increase in MscS activation pressure midpoint (p0.5) measured in patch-clamp experiments at different concentrations of intercalating agents by linear fit of Δp0.5 as a function of log(Cd).

[5] = test system: Bacillus subtilis; conditions: cited from earlier work; for MIC for B. subtilis: cultures of Bacillus subtilis, ref 22 (table title); for Activity against B. subtilis: Gram-positive
[6] = test system: S. aureus, MRSA; parameters: method as in PMID 17707686; conditions: Gram-positive; cited from earlier work
[7] = test system: E. faecium, VRE; parameters: method as in PMID 17707686; conditions: Gram-positive; cited from earlier work
[8] = test system: E. coli; parameters: method as in PMID 17707686; conditions: Gram-negative; only when co-administered with Phe-Arg-β-naphthylamide dihydrochloride (PAβND), efflux pump inhibitor; cited from earlier work

SMILES | Biological / antibiotic activity [1] | log KAW (tens.) [2] | Concentration at which changes of surface tension were detected [2] | log Klip @ 20 mN/m, Measured [3] | Effective Molec. Area (ad) [3] [Å^2] | log Klip @ 35 mN/m, Corrected [3] | Redistribution / return of activation midpoint [4] | MIC for B. subtilis [5] [µg/mL] | log Kmem (patch-clamp) [4] | Effect on surface tension ([2]; up to 30 µM) | Effective Molec. Area (ad) ([3]; listed as platensimycin) | Activity against B. subtilis [5] | Activity against S. aureus, MRSA [6] | Activity against E. faecium, VRE [7] | Activity against E. coli [8] | Concentration in the subphase at which presence is detectable on isotherms [3] | Initial unilateral insertion into the membrane relative to flipping across the membrane ([4]; sequential additions)
Cn1ccnc1CN(CCC(=O)Nc1c(O)ccc(C(=O)O)c1O)Cc1nccn1C [G262] | essentially no biological activity | 4.2 | 10^−4 M | 5.9 | 17 | 5.6 | did not return back | >512 | – | – | – | – | – | – | – | – | –
O=C(CCN(Cc1ccc2c(c1)OCO2)Cc1ccc2c(c1)OCO2)Nc1c(O)ccc(C(=O)O)c1O [G271] | no antibiotic activity | 4.5 | – | 6.1 | 18 | 5.8 | did not return back | >512 | 6.1 | – | – | – | – | – | – | – | –
O=C(CCN(Cc1cccnc1)Cc1cccnc1)Nc1c(O)ccc(C(=O)O)c1O [G258] | essentially no biological activity | 4.2 | 10^−4 M | 5.9 | 18 | 5.6 | relatively fast | >512 | – | – | – | – | – | – | – | – | –
CC12C[C@@]34C=CC(=O)[C@@](C)(CCC(=O)Nc5c(O)ccc(C(=O)O)c5O)C3[C@H](CC1C4)O2 (stereo partly drawn) [PL, platensimycin] | – | 4.6 | – | 6.6 | 34 | 6.1 | – | 2 | 5.0 | no visible effect | 31–34 Å^2 | active | active | active | active | – | –
CCCCN(CCCC)CCC(=O)Nc1c(O)ccc(C(=O)O)c1O [QD-06] | – | 4.1 | – | 5.0 | 30 | 4.5 | – | 128 | 5.5 | – | – | – | – | – | – | – | –
CC1(C)C2CC=C(CNCCC(=O)Nc3c(O)ccc(C(=O)O)c3O)C1C2 (stereo not drawn) [QL-03] | – | 5.0 | – | 5.6 | 28 | 5.2 | – | >256 | 6.1 | – | – | – | – | – | – | – | –
CC1(C)C2CC=C(CN(CCC(=O)Nc3c(O)ccc(C(=O)O)c3O)CC3=CCC4CC3C4(C)C)C1C2 [QD-11, myrtemycin] | – | 6.1 | – | 6.7 | 31 | 6.2 | – | 4 | 5.7 | – | – | active | active | active | active | 10^−7 M | five to six times faster
